Tests used:
Sco GlgEI-V279S [1] = biological target: T1, Sco GlgEI-V279S (Streptomyces coelicolor, UniProt Q9L1K2, V279S); details: earlier work; cited from earlier work
Sco GlgEI-V279S [2] = biological target: T1, Sco GlgEI-V279S; details: ratio of Ki values

T1 sequence (Q9L1K2 whole entry V279S): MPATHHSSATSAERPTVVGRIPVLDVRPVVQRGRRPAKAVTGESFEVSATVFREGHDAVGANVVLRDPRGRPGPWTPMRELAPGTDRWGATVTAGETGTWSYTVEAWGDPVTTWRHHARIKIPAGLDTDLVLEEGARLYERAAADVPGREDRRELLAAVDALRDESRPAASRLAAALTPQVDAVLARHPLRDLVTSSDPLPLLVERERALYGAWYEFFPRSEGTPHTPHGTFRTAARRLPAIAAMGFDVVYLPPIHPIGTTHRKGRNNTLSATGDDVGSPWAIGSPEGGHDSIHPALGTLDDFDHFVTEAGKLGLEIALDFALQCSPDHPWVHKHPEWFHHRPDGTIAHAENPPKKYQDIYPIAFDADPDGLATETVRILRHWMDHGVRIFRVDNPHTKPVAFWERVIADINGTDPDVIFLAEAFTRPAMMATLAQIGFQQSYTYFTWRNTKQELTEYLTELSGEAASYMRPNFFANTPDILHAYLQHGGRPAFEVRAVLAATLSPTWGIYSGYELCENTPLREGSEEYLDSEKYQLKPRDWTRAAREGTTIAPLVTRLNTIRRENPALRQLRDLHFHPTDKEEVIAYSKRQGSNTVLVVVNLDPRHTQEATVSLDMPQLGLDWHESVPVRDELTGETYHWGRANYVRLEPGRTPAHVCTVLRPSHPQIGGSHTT

**Q.** With OC[C@H]1N[C@H](CO)[C@@H](O[C@H]2O[C@H](CO)[C@@H](O)[C@H](O)[C@H]2O)[C@@H]1O [Compound 4, 2,5-dideoxy-3-O-α-D-glucopyranosyl-2,5-imino-D-mannitol] as the molecule, how does the “inhibitory activity against Sco GlgEI-V279S (in words)” value (Sco GlgEI-V279S [1]) read?
**A.** moderate inhibitory activity

**Q.** For O=P(O)(O)CN1C(CO)C(O)C(O[C@H]2O[C@H](CO)[C@@H](O)[C@H](O)[C@H]2O)C1CO (stereo partly drawn) [Compound 5, ((3-Hydroxy-2,5-bis(hydroxymethyl)-(3-O-α-D-glucopyranosyl)pyrrolidin-1-yl)methyl)phosphonic acid], which “fold more potent than previously reported inhibitor 4” value (Sco GlgEI-V279S [2]; 5 versus 4) is on record?
**A.** 2 fold

**Q.** What about the “fold more potent than two carbon phosphonate 6” value (Sco GlgEI-V279S [2]; 5 versus 6) of the same molecule?
**A.** 2 fold

Source: PMC6169318 (Organic & biomolecular chemistry, 2017)
